US6300320A, “Modulation of c-jun using inhibitors of protein kinase C” (Isis Pharmaceuticals, Inc., priority 1999, dated 2001)

Tested on: c-jun mRNA expression in A549 cells
Assay: Phorbol ester (TPA) mediated AP-1 gene expression in A549 cells, Northern blotting
Format: cell-based
Conditions: Homo sapiens, 0.5 h, 100 nM TPA for 30 minutes, no oligo, basal = 100%
Protocol: The effect of PKC-α reduction on AP-1 transcription factor components was determined. 12-O-tetradecanoylphorbol-13-acetate (TPA) causes a time dependent accumulation of mRNA transcripts of multiple members of AP-1, including c-jun, jun-B and c-fos.
A549 cells were treated with 100 nM ISIS 9606 (SEQ ID NO. 2) or ISIS 13009 (SEQ ID NO. 23) and DOTMA/DOPE as described in Example 13. Cells were then washed and allowed to recover for an additional 68 hours. Cells were then treated with 100 nM TPA for 30 minutes and the expression of either c-fos, jun-B, c-jun or G3PDH mRNA expression was determined by Northern blotting.
Total RNA was extracted from cells and resolved on agarose gels as described in Example 6. These were transferred to nylon membrane (Biorad, Hercules, Calif.) and probed with ^32 P radiolabelled cDNA probes for different PKC isozymes. Additionally, gels were probed with ^32 P radiolabelled cDNA probes for c-fos, c-jun, and junB (American Type Culture Collection, Manassas, Va.). Gels were routinely stripped and reprobed with radiolabelled human […]-3-phosphate dehydrogenase (G3PDH) probe to confirm equal loading. Radioactive bands were quantified using a Phospholmager (Molecular Dynamics, Sunnyvale, Calif.). […] A scrambled control oligonucleotide was without effect on the up-regulation of any AP-1 family member. […]

SMILES: CCCCCCCCCCCCCC(=O)O[C@@H]1[C@@H](C)[C@@]2(O)[C@@H](C=C(CO)C[C@]3(O)C(=O)C(C)=C[C@@H]23)[C@@H]2C(C)(C)[C@]12OC(C)=O [TPA, 12-O-tetradecanoylphorbol-13-acetate]
- activity at 0.1 µM: 353%
